Experimental data from patent US10774064B2 (Cadent Therapeutics, Inc., priority 2016, dated 2020).

Each molecule was assayed against T1, small-conductance Ca2+-activated K+ channels (SK channels, subtype 2) (Homo sapiens, UniProt Q9H2S1) (assay: whole-cell patch-clamp of ionic current through SK2 channels in HEK293 cells (SC100)). Details: concentration that increases the basal current by 100%; HEK293 cells expressing SK2 channels.
T1 construct: expressed in transfected cells; host or cells: HEK293
Assay type: cell-based
Description: The biological activity was determined as follows. The ionic current through small-conductance Ca^2+-activated K^+ channels (SK channels, subtype 2) was measured using the whole-cell configuration of the patch-clamp technique in a patch-clamp set-up using HEK293 tissue culture cells expressing SK2 channels as described in Hougaard et al., British Journal of Pharmacology 151, 655-665, May 8, 2007, the entire teachings of which are incorporated herein by reference. In one aspect, a compound is defined to be an SK PAM if the compound increases current in this assay, for example, if the SC100 value of the compound is less than or equal to 10 μM as determined by this assay. The SC100 value is defined to be the concentration of compound that increases the basal current by 100%.

| Compound | SC100 |
| --- | --- |
| Cc1ccn(-c2nc(NC3CCC(F)(F)CC3)cc(NC3CC(C)(C)C3)n2)n1 [Compound 156, N4-(4,4-difluorocyclohexyl)-N6-(3,3-dimethylcyclobutyl)-2-(3-methyl-1H-pyrazol-1-yl)pyrimidine-4,6-diamine] | ++ (++ means 200 nM-1000 nM) |
| Cc1ccn(-c2nc(NCC3(N(C)C)CCC3)cc(NC3CCC(F)(F)CC3)n2)n1 [Compound 157, N4-(4,4-difluorocyclohexyl)-N6-((1-(dimethylamino)cyclobutyl)methyl)-2-(3-methyl-1H-pyrazol-1-yl)pyrimidine-4,6-diamine] | ++ (++ means 200 nM-1000 nM) |
| CCN1CCCCC(Nc2cc(NC3CCC(F)(F)CC3)nc(-n3ccc(C)n3)n2)C1 (centres unmarked) [Compound 158, N4-(4,4-difluorocyclohexyl)-N6-(1-ethylazepan-3-yl)-2-(3-methyl-1H-pyrazol-1-yl)pyrimidine-4,6-diamine] | ++ (++ means 200 nM-1000 nM) |
| Cc1cc(NC2CCC(F)(F)CC2)nc(-n2nc(C)cc2C)c1 [Compound 159, N-(4,4-difluorocyclohexyl)-6-(3,5-dimethyl-1H-pyrazol-1-yl)-4-methylpyridin-2-amine] | ++ (++ means 200 nM-1000 nM) |
| CCN(c1nc(C)cc(-n2nc(C)cc2C)n1)C1CCC(F)(F)CC1 [Compound 160, N-(4,4-difluorocyclohexyl)-4-(3,5-dimethyl-1H-pyrazol-1-yl)-N-ethyl-6-methylpyrimidin-2-amine] | + (+ means >1 uM) |
| CCN(c1cc(C)nc(-n2nc(C)cc2C)n1)C1CCC(F)(F)CC1 [Compound 161, N-(4,4-difluorocyclohexyl)-2-(3,5-dimethyl-1H-pyrazol-1-yl)-N-ethyl-6-methylpyrimidin-4-amine] | + (+ means >1 uM) |
| Cc1cc(C)n(-c2nc(NC3CCC(F)(F)CC3)cc(C(F)(F)F)n2)n1 [Compound 162, N-(4,4-difluorocyclohexyl)-2-(3,5-dimethyl-1H-pyrazol-1-yl)-6-(trifluoromethyl)pyrimidin-4-amine] | ++ (++ means 200 nM-1000 nM) |
| Cc1cc(C)n(-c2nccc(NC3CCC(F)(F)CC3)n2)n1 [Compound 163, N-(4,4-difluorocyclohexyl)-2-(3,5-dimethyl-1H-pyrazol-1-yl)pyrimidin-4-amine] | + (+ means >1 uM) |
| Cc1cc(C)n(-c2nc(CF)cc(NC3CCC(F)(F)CC3)n2)n1 [Compound 165, N-(4,4-difluorocyclohexyl)-2-(3,5-dimethyl-1H-pyrazol-1-yl)-6-(fluoromethyl)pyrimidin-4-amine] | + (+ means >1 uM) |
| Cc1cc(C)n(-c2cccc(N(C)C3CCC(F)(F)CC3)n2)n1 [Compound 166, N-(4,4-difluorocyclohexyl)-6-(3,5-dimethyl-1H-pyrazol-1-yl)-N-methylpyridin-2-amine] | + (+ means >1 uM) |
| Cc1cc(C)n(-c2nc(NC3CCC(F)(F)C3)cc(C(F)(F)F)n2)n1 (centres unmarked) [Compound 167, N-(3,3-difluorocyclopentyl)-2-(3,5-dimethyl-1H-pyrazol-1-yl)-6-(trifluoromethyl)pyrimidin-4-amine] | + (+ means >1 uM) |
| Cc1cc(C)n(-c2nc(NC3CCC(F)(F)C3)cc(C(F)F)n2)n1 (centres unmarked) [Compound 168, N-(3,3-difluorocyclopentyl)-6-(difluoromethyl)-2-(3,5-dimethyl-1H-pyrazol-1-yl)pyrimidin-4-amine] | + (+ means >1 uM) |
| CCc1cc(-n2nc(C)cc2C)nc(NC2CCC(F)(F)CC2)n1 [Compound 169, N-(4,4-difluorocyclohexyl)-4-(3,5-dimethyl-1H-pyrazol-1-yl)-6-ethylpyrimidin-2-amine] | ++ (++ means 200 nM-1000 nM) |
| Cc1cc(C)n(-c2cc(C(F)(F)F)cc(NC3CCC(F)(F)CC3)n2)n1 [Compound 170, N-(4,4-difluorocyclohexyl)-6-(3,5-dimethyl-1H-pyrazol-1-yl)-4-(trifluoromethyl)pyridin-2-amine] | ++ (++ means 200 nM-1000 nM) |
| CCc1cc(NC2CCC(F)(F)CC2)nc(-n2nc(C)cc2C)n1 [Compound 171, N-(4,4-difluorocyclohexyl)-2-(3,5-dimethyl-1H-pyrazol-1-yl)-6-ethylpyrimidin-4-amine] | ++ (++ means 200 nM-1000 nM) |
| Cc1cc(NC2CCC(F)(F)C2)nc(-n2nc(C)cc2C)n1 (centres unmarked) [Compound 172] | + (+ means >1 uM) |
| Cc1cc(C)n(-c2cc(C(F)F)nc(NC3CCC(F)(F)CC3)n2)n1 [Compound 173] | ++ (++ means 200 nM-1000 nM) |
| Cc1cc(C)n(-c2cc(C#N)cc(NC3CCC(F)(F)CC3)n2)n1 [Compound 174, 2-((4,4-difluorocyclohexyl)amino)-6-(3,5-dimethyl-1H-pyrazol-1-yl)isonicotinonitrile] | ++ (++ means 200 nM-1000 nM) |

| Compound | SC100 |
| --- | --- |
| Cc1cc(C)n(-c2cc(C(N)=O)cc(NC3CCC(F)(F)CC3)n2)n1 [Compound 175, 2-((4,4-difluorocyclohexyl)amino)-6-(3,5-dimethyl-1H-pyrazol-1-yl)isonicotinamide] | ++ (++ means 200 nM-1000 nM) |
| Cc1cc(C)n(-c2nc(CN3CCOCC3)cc(NC3CCC(F)(F)CC3)n2)n1 [Compound 176, N-(4,4-difluorocyclohexyl)-2-(3,5-dimethyl-1H-pyrazol-1-yl)-6-(morpholinomethyl)pyrimidin-4-amine] | + (+ means >1 uM) |
| Cc1cc(C)n(-c2nc(CN(C)C)cc(NC3CCC(F)(F)CC3)n2)n1 [Compound 177, N-(4,4-difluorocyclohexyl)-2-(3,5-dimethyl-1H-pyrazol-1-yl)-6-((dimethylamino)methyl)pyrimidin-4-amine] | + (+ means >1 uM) |
| Cc1cc(C)n(-c2nc(CN3CCN(C)CC3)cc(NC3CCC(F)(F)CC3)n2)n1 [Compound 178, N-(4,4-difluorocyclohexyl)-2-(3,5-dimethyl-1H-pyrazol-1-yl)-6-((4-methylpiperazin-1-yl)methyl)pyrimidin-4-amine] | + (+ means >1 uM) |
| Cc1ccn(-c2cc(Cl)cc(NC3CCC(F)(F)CC3)n2)n1 [Compound 179, 4-chloro-N-(4,4-difluorocyclohexyl)-6-(3-methyl-1H-pyrazol-1-yl)pyridin-2-amine] | ++ (++ means 200 nM-1000 nM) |
| Cc1cc(NC2CCC(C(F)(F)F)CC2)nc(-n2ccc(C)n2)c1 (centres unmarked) [Compound 180, 4-methyl-6-(3-methyl-1H-pyrazol-1-yl)-N-(4-(trifluoromethyl)cyclohexyl)pyridin-2-amine] | + (+ means >1 uM) |
| Cc1cc(C)n(-c2cc(C(F)F)nc(NC3CCC(F)(F)C3)n2)n1 (centres unmarked) [Compound 181, N-(3,3-difluorocyclopentyl)-4-(difluoromethyl)-6-(3,5-dimethyl-1H-pyrazol-1-yl)pyrimidin-2-amine] | + (+ means >1 uM) |
| Cc1cc(C)n(-c2nc(NC3CCC(F)(F)C3)cc(C(N)=O)n2)n1 (centres unmarked) [Compound 183, 6-((3,3-difluorocyclopentyl)amino)-2-(3,5-dimethyl-1H-pyrazol-1-yl)pyrimidine-4-carboxamide] | + (+ means >1 uM) |
| Cc1cc(C)n(-c2nc(C#N)cc(NC3CCC(F)(F)C3)n2)n1 (centres unmarked) [Compound 184, 6-((3,3-difluorocyclopentyl)amino)-2-(3,5-dimethyl-1H-pyrazol-1-yl)pyrimidine-4-carbonitrile] | + (+ means >1 uM) |
| Cc1cc(C)n(-c2cc(CO)cc(NC3CCC(F)(F)CC3)n2)n1 [Compound 185, (2-((4,4-difluorocyclohexyl)amino)-6-(3,5-dimethyl-1H-pyrazol-1-yl)pyridin-4-yl)methanol] | ++ (++ means 200 nM-1000 nM) |
| Cc1cc(C)n(-c2nc(NC3CCC(F)(F)CC3)cc(C3CC3)n2)n1 [Compound 186, 6-cyclopropyl-N-(4,4-difluorocyclohexyl)-2-(3,5-dimethyl-1H-pyrazol-1-yl)pyrimidin-4-amine] | ++ (++ means 200 nM-1000 nM) |
| Cc1cc(C)n(-c2nc(NC3CCC(F)(F)CC3)cc(N3CCOCC3)n2)n1 [Compound 187, N-(4,4-difluorocyclohexyl)-2-(3,5-dimethyl-1H-pyrazol-1-yl)-6-morpholinopyrimidin-4-amine] | ++ (++ means 200 nM-1000 nM) |
| Cc1cc(C)n(-c2nc(NC3CCC(F)(F)CC3)cc(N3CCOC(C)C3)n2)n1 (centres unmarked) [Compound 188, N-(4,4-difluorocyclohexyl)-2-(3,5-dimethyl-1H-pyrazol-1-yl)-6-(2-methylmorpholino)pyrimidin-4-amine] | ++ (++ means 200 nM-1000 nM) |
| Cc1cc(C)n(-c2nc(NC3CCC(F)(F)CC3)cc(OCc3cnnn3C)n2)n1 [Compound 189, N-(4,4-difluorocyclohexyl)-2-(3,5-dimethyl-1H-pyrazol-1-yl)-6-((1-methyl-1H-1,2,3-triazol-5-yl)methoxy)pyrimidin-4-amine] | +++ (+++ means <200 nM) |
| Cc1cc(C)n(-c2nc(NC3CCC(F)(F)CC3)cc(N3CC(C)OC(C)C3)n2)n1 (centres unmarked) [Compound 190, N-(4,4-difluorocyclohexyl)-2-(3,5-dimethyl-1H-pyrazol-1-yl)-6-(2,6-dimethylmorpholino)pyrimidin-4-amine] | ++ (++ means 200 nM-1000 nM) |
| Cc1cc(C)n(-c2nc(NC3CCC(F)(F)CC3)cc(OCc3cnn(C)n3)n2)n1 [Compound 191, N-(4,4-difluorocyclohexyl)-2-(3,5-dimethyl-1H-pyrazol-1-yl)-6-((2-methyl-2H-1,2,3-triazol-4-yl)methoxy)pyrimidin-4-amine] | ++ (++ means 200 nM-1000 nM) |
| Cc1cc(C)n(-c2nc(CO)cc(NC3CCC(F)(F)C3)n2)n1 (centres unmarked) [Compound 192, (6-((3,3-difluorocyclopentyl)amino)-2-(3,5-dimethyl-1H-pyrazol-1-yl)pyrimidin-4-yl)methanol] | ++ (++ means 200 nM-1000 nM) |
